In US7084158B2, “Substituted propargylamines” (Bayer Cropscience S.A., priority 2001, dated 2006):

How the values were obtained:
Type in all cases: in vivo
Set-up in all cases: key: compounds were considered to be active when, at a concentration of 500 ppm or less, they had an activity on the harmful organisms of 50% or more
[1] = tested on: Spodoptera exigua; assay: Example Y: cotton plants sprayed, cut leaves, sugar beet armyworm mortality; details: 500 ppm or less, leaves cut after drying, L2 larvae, after 4 days
Description: Cotton plants were sprayed with an aqueous solution of the formulated compound to be examined. After drying, leaves were cut off, placed into a Petri dish and populated with 5 L2 larvae of the sugar beet armyworm (Spodoptera exigua). After 4 days of storage at about 23° C., the mortality among the larvae was determined. The following examples were active: 1036, 70, 60, 1047, 197.

[2] = tested on: Carpocapsa pomonella; assay: Example I: insect diet and L1 larvae sprayed, codling moth mortality; details: 500 ppm or less, after 8 days
Description: Ten L1 larvae of the codling moth (Carpocapsa pomonella) were placed into a Petri dish filled with insect diet. Insect diet and the larvae used were then sprayed with an aqueous solution of the formulated compound to be examined. The Petri dish was then closed with a lid. After 8 days of storage at about 23° C., the effect of the compound on the larvae was determined (mortality). The compounds of the following examples were active: 60, 70, 1002, 1005.

[3] = tested on: Trialeurodes vaporariorum; assay: Example AD: bush beans sprayed, white fly larvicidal action; details: 500 ppm or less; bush beans sprayed after hatching; after 11 days
Description: For oviposition, bush beans (Phaseolus vulgaris) were populated for 48 hours with adults of the white fly (Trialeurodes vaporariorum). After the larvae had hatched, the plants were sprayed to run-off point with an aqueous solution of the formulated compound to be examined. After 11 days, the larvicidal action was determined. The following examples were active: 1036, 70, 60, 1040, 197.

[4] = tested on: Spodoptera exigua; assay: Example X: dipped freeze-dried diet cube, sugar beet armyworm L2 larvae mortality; details: 500 ppm or less, after 4 days
Description: Insect diet (as freeze-dried cube) was dipped into an aqueous solution of the formulated compound to be examined and then placed into a Petri dish. 10 L2 larvae of the sugar beet armyworm (Spodoptera exigua) were then added. The Petri dish was then closed with a lid. After 4 days of storage at about 23° C., the mortality among the larvae was determined. The following examples were active: 1036, 60.

[5] = tested on: Spodoptera littoralis; assay: Example G: treated L2 larvae and insect diet, Egyptian cotton leafworm mortality; details: 500 ppm or less, after 6 days
[6] = tested on: Leptinotarsa decemlineata; assay: Example L: potato leaves and larvae sprayed, Colorado beetle mortality; details: 500 ppm or less, after 4 days
Description: Potato leaves were populated with larvae of the Colorado beetle (Leptinotarsa decemlineata). Leaves and larvae were then sprayed with an aqueous solution of the formulated compound to be examined. After 4 days of storage at about 25° C., the effect of the compound on the larvae was determined (mortality). The compounds of the following examples were active: 60, 70, 1002, 1004, 1005, 1036, 1047, 197.

[7] = tested on: Diabrotica undecimpunctata; assay: Example C: corn rootworm eggs with maize corn, mortality; details: 500 ppm or less; 4-5-day-old eggs; after 6 days
[8] = tested on: Spodoptera exigua; assay: Example Z: cotton leaves with larvae sprayed, sugar beet armyworm mortality; details: 500 ppm or less; cotton leaves populated then sprayed; L2 larvae; after 4 days
Description: Cotton leaves were populated with 5 L2 larvae of the sugar beet armyworm (Spodoptera exigua) and then sprayed with an aqueous solution of the formulated compound to be examined. After 4 days of storage at about 23° C., the mortality among the larvae was determined. The following examples were active: 1036, 70, 60, 1047, 197.

[9] = tested on: Leptinotarsa decemlineata; assay: Example AI: sprayed potato plant, repellent effect on Colorado beetle larvae; details: 500 ppm or less; sprayed plant with untreated plant in a cage; after 1 and 3 days
Excerpt: A potato plant was sprayed with an aqueous solution of the formulated compound to be examined and, together with an untreated plant, placed in a cage. The cage was populated with 100 larvae of the Colorado beetle (Leptinotarsa decemlineata). […] The following examples were active: 1036, 70, 60.

[10] = tested on: Heliothis virescens; assay: Example B: tobacco budworm eggs on filter paper/insect diet, mortality; details: 500 ppm or less; 24-hour-old eggs dipped, diet treated; after 6 days
[11] = tested on: Plutella maculipennis; assay: Example K: sprayed white cabbage leaf, diamondback moth larvae mortality; details: 500 ppm or less, after 3 days
Description: A white cabbage leaf was sprayed with an aqueous solution of the formulated compound to be examined. After the spray coating had dried, the treated leaf was populated with larvae of the diamondback moth (Plutella maculipennis). After 3 days of storage at about 23° C., the effect of the compound on the larvae was determined (mortality). The compounds of the following examples were active: 60, 70, 1002, 1004, 1005, 1036, 197.

CC1CCN(CC#Cc2cc(C(F)(F)F)cc(C(F)(F)F)n2)CC1 [Example 60]
active: mortality among the larvae [1] | effect on the larvae (mortality) [2] | larvicidal action [3] | mortality among the larvae [4] | effect on the larvae (mortality) [5] | effect on the larvae (mortality) [6] | effect on the eggs and hatched larvae (mortality) [7] | mortality among the larvae [8] | repellent effect on the larvae [9] | effect on the eggs and hatched larvae (mortality) [10] | effect on the larvae (mortality) [11]
